Series [1] has as its system Myzus persicae. As to the kind of experiment: Myzus persicae - spray test (Chinese cabbage leaf discs). In kind it is in vivo. The conditions noted are these: for pest or weed control at 500 g/ha: Myzus persicae, foliar, read-out: efficacy. The protocol:
Myzus persicae—Spray Test
Solvent: 78 parts by weight of acetone • • 1.5 parts by weight of dimethylformamide
Emulsifier: alkylaryl polyglycol ether
To produce a suitable active compound preparation, 1 part by weight of active compound is dissolved using the stated parts by weight of solvent and made up with water containing an emulsifier concentration of 1000 ppm until the desired concentration is attained. To produce further test concentrations, the formulation is diluted with emulsifier-containing water.
Discs of Chinese cabbage leaves (Brassica pekinensis) infested by all stages of the green peach aphid (Myzus persicae) are sprayed with an active ingredient formulation of the desired concentration.
After 5-6 days, the efficacy in % is determined. 100% means that all the aphids have been killed; 0% means that no aphids have been killed.

Series [2] relates to Myzus persicae. As to the kind of experiment: Myzus persicae - oral test. It counts as in vivo. The conditions noted are these: for pest or weed control at 20 ppm: Myzus persicae, po, 120 h, read-out: efficacy. Here is the method:
Solvent: 100 parts by weight of acetone
To produce a suitable preparation of active compound, 1 part by weight of active compound is dissolved using the specified parts by weight of solvent and made up with water until the desired concentration is attained.
50 μl of the active compound preparation are transferred into microtitre plates and made up to a final volume of 200 μl with 150 μl of IPL41 insect medium (33%+15% sugar). Subsequently, the plates are sealed with parafilm, which a mixed population of green peach aphids (Myzus persicae) within a second microtitre plate is able to puncture and imbibe the solution through it.
After 5 days, the efficacy in % is determined. 100% means that all the aphids have been killed; 0% means that no aphids have been killed.

Series [3] can be described thus: log P by HPLC on reversed-phase (C18) columns, OECD Guideline 117. In kind it is physicochemical. The conditions noted are these: for chromatographic logP: reversed-phase (C18) HPLC column. The protocol:
The log P values were determined in accordance with OECD Guideline 117 (EC Directive 92/69/EEC) by HPLC (high-performance liquid chromatography) using reversed-phase (RP) columns (C18), by the following methods:
[a] The LC-MS determination in the acidic range was carried out at pH 2.7 with 0.1% aqueous formic acid and acetonitrile (contains 0.1% formic acid) as mobile phases; linear gradient from 10% acetonitrile to 95% acetonitrile.
[b] LC-MS determination in the neutral range was carried out at pH 7.8 with 0.001 molar aqueous ammonium hydrogencarbonate solution and acetonitrile as mobile phases; linear gradient from 10% acetonitrile to 95% acetonitrile.

[4] abbreviates: application rate 500 g/ha, after 5-6 days.
Where [5] appears, read: application rate 20 ppm, after 5 days.
[6] abbreviates: neutral range, pH 7.8, aqueous ammonium hydrogencarbonate/acetonitrile.
Where [7] appears, read: acidic range, pH 2.7, 0.1% aqueous formic acid/acetonitrile.
The mark [8] stands for this setting: acidic range, pH 2.7, 0.1% aqueous formic acid/acetonitrile, read-out: logP[a].
[9] abbreviates: neutral range, pH 7.8, aqueous ammonium hydrogencarbonate/acetonitrile, read-out: logP[n].

Read-outs that look alike come from different tables or passages of the source.

`CC(O)c1ncc(C(=O)N(C)c2cccnc2)n1C` (racemic) [Example I-1-9]: the efficacy with Myzus persicae [1] (setting [4]) and in the series with Myzus persicae [2] (setting [5]) was 100% in each case. The “logP[n]” value in series [3] (setting [6]) turned out to be 0.45.
On to `CC(C)C(O)c1ncc(C(=O)N(C)c2cccnc2)n1C` (racemic) [Example I-1-11], for which the efficacy in the series with Myzus persicae [1] (setting [4]) is listed as 90%; in the series with Myzus persicae [2] (setting [5]), 100%. In series [3] (setting [7]), the “logP[a]” value is 0.18.
For `CN(C(=O)c1cnc(C(O)c2ccccc2Cl)n1C)c1cccnc1` (racemic) [Example I-1-13], in that order: 100%, 100% and 0.85.
Turning to `CN(C(=O)c1cnc(C(O)c2cccc(Cl)c2)n1C)c1cccnc1` (racemic) [Example I-1-14], the values for the efficacy in the series on Myzus persicae [1] (setting [4]) and with Myzus persicae [2] (setting [5]) were 90% and 100%, respectively. Further, the “logP[a]” value in series [3] (setting [7]) is 1.01. In series [3] (setting [6]), the “logP[n]” value came to 1.56.
For `CN(C(=O)c1cnc(C(O)c2ccc(Cl)cc2)n1C)c1cccnc1` (racemic) [Example I-1-15], in that order: 100%, 100%, 1.11 and 1.56.
For `CN(C(=O)c1cnc(C(O)c2ccc(Cl)c(Cl)c2)n1C)c1cccnc1` (racemic) [Example I-1-16], in that order: 100%, 100%, 1.42 and 1.87.
The matching figures for `CN(C(=O)c1cnc(C(O)c2ccccn2)n1C)c1cccnc1` (racemic) [Example I-1-17]: 100%, 100%, 0.02 and 0.71.
In the case of `CN(C(=O)c1cnc(C(O)c2cccnc2)n1C)c1cccnc1` (racemic) [Example I-1-18], the efficacy was 90% in the series on Myzus persicae [1] (setting [4]) and 100% with Myzus persicae [2] (setting [5]). Moreover, in series [3] (setting [6]), the “logP[n]” value was determined as 0.60.
For `CN(C(=O)c1cnc(C(O)c2ccncc2)n1C)c1cccnc1` (racemic) [Example I-1-19], in that order: 90%, 100% and 0.54.
Consider `CN(C(=O)c1cnc(C(O)c2cnccc2Cl)n1C)c1cccnc1` (racemic) [Example I-1-20], for which the efficacy is reported as 90% in the series on Myzus persicae [1] (setting [4]) and 100% in the series with Myzus persicae [2] (setting [5]). The “logP[a]” value in series [3] (setting [7]) is 0.59. Besides, the “logP[n]” value in series [3] (setting [6]) was 1.07.
As to `CN(C(=O)c1cnc(C(O)c2ncccn2)n1C)c1cccnc1` (racemic) [Example I-1-21], the efficacy in the series with Myzus persicae [1] (setting [4]) and in the series on Myzus persicae [2] (setting [5]) was 100% each time. Besides, in series [3] (setting [6]), the “logP[n]” value worked out at 0.40.
Consider `CC(C)CC(O)c1ncc(C(=O)N(C)c2cccnc2)n1C` (racemic) [Example I-1-60], for which the efficacy turned out to be 90% in the series with Myzus persicae [1] (setting [4]) and 100% with Myzus persicae [2] (setting [5]). Further, the “logP[a]” value in series [3] (setting [7]) was determined as 0.60. The “logP[n]” value in series [3] (setting [6]) stood at 1.26.
Take `CC(C)CCC(O)c1ncc(C(=O)N(C)c2cccnc2)n1C` (racemic) [Example I-1-61]: the efficacy was 90% with Myzus persicae [1] (setting [4]) and 100% in the series with Myzus persicae [2] (setting [5]). Also, in series [3] (setting [7]), the “logP[a]” value was found to be 0.92. Also, in series [3] (setting [6]), the “logP[n]” value amounted to 1.53.
`CN(C(=O)c1cnc(Cc2ccccc2)n1C)c1cccnc1` [Example I-1-3, 2-Benzyl-N,1-dimethyl-N-(pyridin-3-yl)-1H-imidazole-5-carboxamide]: the pest or weed control at 500 g/ha with Myzus persicae [1] (setting [4]) was 100%. Besides, the pest or weed control at 20 ppm with Myzus persicae [2] (setting [5]) was determined as 90%. Besides, the values for the chromatographic logP in series [3] (setting [8]) and in series [3] (setting [9]) were 0.64 and 1.48, respectively.
On to `CN(C(=O)c1cnc(Cc2ncccn2)n1C)c1cccnc1` [Example I-1-4], for which the efficacy in the series with Myzus persicae [1] (setting [4]) and in the series on Myzus persicae [2] (setting [5]) was 100% each time. The “logP[n]” value in series [3] (setting [6]) is recorded as 0.68.
For the compound `CN(C(=O)c1cnc(CCc2ccccc2)n1C)c1cccnc1` [Example I-1-5, N,1-Dimethyl-2-(phenylethyl)-N-(pyridin-3-yl)-1H-imidazole-5-carboxamide], the pest or weed control at 500 g/ha in the series on Myzus persicae [1] (setting [4]) was found to be 100%. In the series on Myzus persicae [2] (setting [5]), the pest or weed control at 20 ppm is 100%. The chromatographic logP came out at 0.66 in series [3] (setting [8]) and 1.58 in series [3] (setting [9]).
On to `C=Cc1ncc(C(=O)N(C)c2cccnc2)n1C` [Example I-1-6, N,1-Dimethyl-N-(pyridin-3-yl)-2-vinyl-1H-imidazole-5-carboxamide], for which the pest or weed control at 500 g/ha in the series on Myzus persicae [1] (setting [4]) is 100%. Further, the pest or weed control at 20 ppm in the series with Myzus persicae [2] (setting [5]) is 100%.
As for `CN(C(=O)c1cnc(CO)n1C)c1cccnc1` [Example I-1-7, 2-(Hydroxymethyl)-N,1-dimethyl-N-(pyridin-3-yl)-1H-imidazole-5-carboxamide], in the series with Myzus persicae [1] (setting [4]), the pest or weed control at 500 g/ha is 100%. Besides, the pest or weed control at 20 ppm with Myzus persicae [2] (setting [5]) was 100%. In addition, the chromatographic logP in series [3] (setting [9]) was 0.28.
As for `CCN(C(=O)c1cnc(CO)n1C)c1cccnc1` [Example I-1-8], the efficacy with Myzus persicae [2] (setting [5]) turned out to be 90%. The “logP[a]” value in series [3] (setting [7]) is −0.16. In series [3] (setting [6]), the “logP[n]” value is 0.63.
On to `CN(C(=O)c1cnc(C(C)(C)O)n1C)c1cccnc1` [Example I-1-10, 2-(2-Hydroxypropan-2-yl)-N,1-dimethyl-N-(pyridin-3-yl)-1H-imidazole-5-carboxamide], for which the pest or weed control at 500 g/ha in the series with Myzus persicae [1] was found to be 90%. For the same compound, in the series on Myzus persicae [2], the pest or weed control at 20 ppm was found to be 70%. For the same compound, the chromatographic logP in series [3] (setting [9]) came to 0.57.
Turning to `CN(C(=O)c1cnc(C(O)c2ccccc2)n1C)c1cccnc1` (centres unmarked) [Example I-1-12, 2-[Hydroxy(phenyl)methyl]-N,1-dimethyl-N-(pyridin-3-yl)-1H-imidazole-5-carboxamide], in the series with Myzus persicae [1], the pest or weed control at 500 g/ha came out at 90%. Besides, the pest or weed control at 20 ppm with Myzus persicae [2] is 100%. For the same compound, the results for the chromatographic logP in series [3] (setting [8]) and in series [3] (setting [9]) were 0.52 and 1.23, respectively.
`CC(C)CS(=O)(=O)Cc1ncc(C(=O)N(C)c2ccc[n+]([O-])c2)n1C` [Example I-1-55, 2-[(Isobutylsulphonyl)methyl]-N,1-dimethyl-N-(1-oxidopyridin-3-yl)-1H-imidazole-5-carboxamide]: the values for the chromatographic logP in series [3] (setting [8]) and in series [3] (setting [9]) were 0.68 and 0.77, respectively.
`C=C(C)c1ncc(C(=O)N(C)c2cccnc2)n1C` [Example I-1-57] registered an efficacy with Myzus persicae [1] (setting [4]) of 90%. Besides, the “logP[a]” value in series [3] (setting [7]) was found to be 0.10. Besides, the “logP[n]” value in series [3] (setting [6]) turned out to be 1.05.
With `C/C=C/c1ncc(C(=O)N(C)c2cccnc2)n1C` [Example I-1-58], the efficacy in the series with Myzus persicae [1] (setting [4]) came out at 90%. Further, in series [3] (setting [6]), the “logP[n]” value was 1.08.
The compound `C/C=C\c1ncc(C(=O)N(C)c2cccnc2)n1C` [Example I-1-59] yielded an efficacy in the series on Myzus persicae [1] (setting [4]) of 90%. In series [3] (setting [6]), the “logP[n]” value is given as 1.11.
As to `Cn1c(C(=O)N(c2cccnc2)C2CC2)cnc1CO` [Example I-1-66], the efficacy in the series with Myzus persicae [2] (setting [5]) came to 70%. Moreover, the “logP[n]” value in series [3] (setting [6]) was found to be 0.61.
Consider `CN(C(=O)c1cnc(C(OCC(F)(F)F)C(F)(F)F)n1C)c1cccnc1` (centres unmarked) [Example I-1-67, N,1-Dimethyl-N-(pyridin-3-yl)-2-[2,2,2-trifluoro-1-(2,2,2-trifluoroethoxy)ethyl]-1H-imidazole-5-carboxamide], for which, in the series with Myzus persicae [1] (setting [4]), the pest or weed control at 500 g/ha was 70%. The chromatographic logP in series [3] (setting [8]) is 1.72; in series [3] (setting [9]) it was 1.86.
For `CN(C(=O)c1cnc(C(O)C(Cl)(Cl)Cl)n1C)c1cccnc1` (centres unmarked) [Example I-1-68], in series [3] (setting [7]), the “logP[a]” value turned out to be 1.02. The “logP[n]” value in series [3] (setting [6]) was found to be 1.21.
`CN(C(=O)c1cnc(Cn2ncn(C3CC3)c2=O)n1C)c1cccnc1` [Example I-1-69] gave an efficacy in the series on Myzus persicae [1] (setting [4]) of 70%. Also, the “logP[a]” value in series [3] (setting [7]) was 0.22. The “logP[n]” value in series [3] (setting [6]) is listed as 0.59.
`CN(C(=O)c1cnc(Cn2ncn(C)c2=O)n1C)c1cccnc1` [Example I-1-70]: the “logP[n]” value in series [3] (setting [6]) was found to be 0.37.
On to `CN(C(=O)c1cnc(CCl)n1C)c1cccnc1` [III-1-1, 2-(Chloromethyl)-N,1-dimethyl-N-(pyridin-3-yl)-1H-imidazole-5-carboxamide], for which the chromatographic logP in series [3] (setting [9]) is 0.89.
Turning to `CN(C(=O)c1cnc(C#Cc2ccccc2)n1C)c1cccnc1` [IV-1-1, N,1-Dimethyl-2-(phenylethinyl)-N-(pyridin-3-yl)-1H-imidazole-5-carboxamide], the chromatographic logP in series [3] (setting [8]) stood at 1.86; in series [3] (setting [9]), 1.98.
